These results are taken from article PMC3402541, “Guanidylation and Tail Effects in Cationic Antimicrobial Lipopeptoids” (PLoS ONE, 2012).

SMILES strings stand for the structures. In brackets after ≈: the same amount, converted by molar mass.

One assay concerns S.aureus ATCC 29213. It is filed as cell-based, Staphylococcus aureus. To be noted: ATCC 29213, Mueller-Hinton broth, 24 hr, 37°C, without replication; for MIC S.aureus in the presence of 4% bovine serum albumin: 4% BSA added, macrobroth dilution; for MIC S.aureus: CLSI macrobroth dilution, 5 x 10^5 CFU/mL. An outline of the steps: (§1)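 Testing follows CLSI macrobroth dilution with an inoculum of approximately 5 × 10^5 CFU/mL in cation-adjusted Mueller-Hinton broth. After 24 hr at 37°C the MIC was recorded, without replicate runs.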
For orientation: In broth dilution the organism is exposed to a series of concentrations in liquid medium.

For another assay, the system named is Gram negative bacteria. Description: MIC with 4% BSA, summary over Gram negative strains. The format is cell-based. The settings on record: 4% BSA added. On the procedure:
Antimicrobial activity of the purified lipopeptoids was determined without replication against a panel of clinically relevant and standard reference bacterial strains according to CLSI macrobroth standards. Stock solutions at 512 µg/mL were prepared in water, with DMSO as needed, and testing was performed in glass test tubes using Muller-Hinton broth and bacteria adjusted to 5 × 10^5 CFU/mL. Bacteria were incubated with the lipopeptoid of interest for 24 hr at 37°C prior to reading. […]
After subculturing the relevant bacteria twice from frozen stock, in vitro activities of the antimicrobials were determined by macrobroth dilution methodology in accordance with the Clinical and Laboratory Standards Institute (CLSI) guidelines (3). The MICs were determined using glass test tubes (2 mL/tube) containing doubling antimicrobial dilutions of cation adjusted Mueller-Hinton broth inoculated to achieve a final concentration of approximately 5 x 10^5 CFU/mL, incubated in ambient air for 24 hr prior to reading. […]

The next assay relates to E. faecium ATCC 27270. The format is cell-based. To be noted: ATCC 27270, Mueller-Hinton broth, 24 hr, 37°C, without replication; for MIC E. faecium in the presence of 4% bovine serum albumin: 4% BSA added, macrobroth dilution; for MIC E. faecium: CLSI macrobroth dilution, 5 x 10^5 CFU/mL. The procedure, abridged:
as §1

The subject of assay [1] is P.aeruginosa CAN-ICU 62308. The format is cell-based, Pseudomonas aeruginosa. To be noted: CAN-ICU 62308, Mueller-Hinton broth, 24 hr, 37°C, without replication; for MIC P.aeruginosa in the presence of 4% bovine serum albumin: 4% BSA added, macrobroth dilution; for MIC P.aeruginosa: CLSI macrobroth dilution, 5 x 10^5 CFU/mL. The procedure, abridged: as §1
In another assay the test system is P.aeruginosa ATCC 27853. The format is cell-based, Pseudomonas aeruginosa. To be noted: ATCC 27853, Mueller-Hinton broth, 24 hr, 37°C, without replication; for MIC P.aeruginosa in the presence of 4% bovine serum albumin: 4% BSA added, macrobroth dilution; for MIC P.aeruginosa: CLSI macrobroth dilution, 5 x 10^5 CFU/mL. The procedure, abridged:
as §1

Take `CCCCCCCCCCCCCCCC[N+](C)(C)C.[Cl-]` [CTAC, Cetyltrimethylammonium chloride, reference compound]: in the assay with S.aureus ATCC 29213, the “MIC S.aureus in the presence of 4% bovine serum albumin” value is recorded as 32 µg/mL and the “MIC S.aureus” value stood at 1 µg/mL. Moreover, in the assay with Gram negative bacteria, the “MIC against Gram negative bacteria with 4% BSA” value was at least 512 µg/mL. In the assay with E. faecium ATCC 27270, the “MIC E. faecium in the presence of 4% bovine serum albumin” value worked out at 64 µg/mL and the “MIC E. faecium” value is 0.5 µg/mL. Moreover, in assay [1], the “MIC P.aeruginosa in the presence of 4% bovine serum albumin” value was 512 µg/mL and the “MIC P.aeruginosa” value is 64 µg/mL. In addition, in the assay with P.aeruginosa ATCC 27853, the “MIC P.aeruginosa in the presence of 4% bovine serum albumin” value was over 512 µg/mL and the “MIC P.aeruginosa” value is listed as 128 µg/mL.

Take `NCCCCN(CC(N)=O)C(=O)CNC(=O)CN(CCCCN)C(=O)CCC(F)(F)C(F)(F)C(F)(F)C(F)(F)C(F)(F)C(F)(F)C(F)(F)C(F)(F)F` [F11-NlysGNlys]: in the assay on S.aureus ATCC 29213, the “MIC S.aureus in the presence of 4% bovine serum albumin” value is 256 µg/mL and the “MIC S.aureus” value amounted to 32 µg/mL (≈ 39.8 µM). In the assay with E. faecium ATCC 27270, the “MIC E. faecium in the presence of 4% bovine serum albumin” value worked out at 256 µg/mL and the “MIC E. faecium” value was found to be 64 µg/mL (≈ 79.5 µM). Besides, in assay [1], the “MIC P.aeruginosa in the presence of 4% bovine serum albumin” value is listed as over 512 µg/mL and the “MIC P.aeruginosa” value is 512 µg/mL (≈ 636 µM). Also, in the assay with P.aeruginosa ATCC 27853, the “MIC P.aeruginosa in the presence of 4% bovine serum albumin” value is given as over 512 µg/mL and the “MIC P.aeruginosa” value was 512 µg/mL (≈ 636 µM).

With `NCCCCN(CC(N)=O)C(=O)CN(CCCCN)C(=O)CN(CCCCN)C(=O)CCC(F)(F)C(F)(F)C(F)(F)C(F)(F)C(F)(F)C(F)(F)C(F)(F)C(F)(F)F` [F11-NlysNlysNlys], in the assay with S.aureus ATCC 29213, the “MIC S.aureus in the presence of 4% bovine serum albumin” value is on record as 128 µg/mL and the “MIC S.aureus” value came to 32 µg/mL (≈ 36.5 µM). Moreover, in the assay with E. faecium ATCC 27270, the “MIC E. faecium in the presence of 4% bovine serum albumin” value amounted to 256 µg/mL and the “MIC E. faecium” value came to 64 µg/mL (≈ 73.1 µM). In addition, in assay [1], the “MIC P.aeruginosa in the presence of 4% bovine serum albumin” value worked out at 512 µg/mL and the “MIC P.aeruginosa” value was found to be 256 µg/mL (≈ 292 µM). Further, in the assay on P.aeruginosa ATCC 27853, the “MIC P.aeruginosa in the presence of 4% bovine serum albumin” value is on record as 512 µg/mL and the “MIC P.aeruginosa” value is listed as 128 µg/mL (≈ 146 µM).
